Results as given in US20180250207A1, “LIQUID CONCENTRATE FOR PRESERVING COSMETICS” (SCHÜLKE & MAYR GMBH, priority 2015, published 2018).
Where a name gives a salt, the structure may show the parent alone.

Tested on: Staphylococcus aureus, Kocuria rhizophila, Enterobacter gergoviae, Escherichia coli, Klebsiella pneumoniae, Pseudomonas aeruginosa, Pseudomonas fluorescens …
Assay: Koko test: preserving effect of preservatives in a cosmetic formulation (PEG-free emulsion for baby wipes), weekly re-inoculation and smears
Assay type: cell-based, bacteria, yeast, moulds
Conditions: use concentration of 1.0% by weight in the emulsion
Description: The test described below serves to assess the preserving effect of chemical preservatives in cosmetic formulations. With the help of the described method, the aim is to test the efficacy of chemical preservatives with regard to pack preservation for cosmetic formulations. For this purpose, in different experimental batches to the nonpreserved samples, the preservatives to be investigated are added in different concentrations. A continual germ loading is achieved through periodic inoculation of the experimental batches. In parallel to the inoculation, smears of the individual batches are performed in each case directly beforehand. […] To be on the safe side, negative smears are observed for a further two days and assessed again. Assessment of the preserving effect of the individual product concentrations is performed in a semi-quantitative method via the growth of the individual smears. −=growth-free ++=moderate growth +=weak growth +++=strong growth The growth is differentiated according to bacteria, yeasts and moulds (“B”=bacteria, “Y”=yeasts, “M”=moulds, “Sp”=spore-forming bacteria, “/”=the test was terminated). […] The sample is well preserved if, under the aforementioned laboratory conditions, it withstands a period of six weeks without microbial attack of the sample batches, i.e. microbial growth cannot be detected even after the sixth inoculation. […]

## CCCCCCCCN=c1ccn(CCCCCCCCCCn2ccc(=NCCCCCCCC)cc2)cc1 [Octenidine dihydrochloride]
  Preserving effect, overall assessment in words: does not have an antimicrobial effect on its own
